Test results from US6563009B1, “Vasodilator cannabinoid analogs” (priority 1999, dated 2003).
Where two headings read alike, the source gives them in different places.

Legend:
[1] = Neurobehavioral tetrad (tail flick, locomotor activity, ring immobility, core body temperature); type: in vivo, mice
From the text: The protocol of the tail-flick test was as follows. The apparatus that was used for the tail-flick test contained a light source placed directly above a photocell connected to a timer. The mouse was held under a cloth by the technician conducting the experiment. The tail of the test animal was placed over the photocell and the light was turned on. When the test animal felt the discomfort of the heat from the light, it was freely able to remove its tail from the lamp. The photocell than sensed that the tail had moved and the timer was stopped. The typical nontreatment reaction time for an animal subjected to this test was about 2-4 seconds. This test involved a spinal reflex action similar to the removal of a finger from a hot stove. In treated animals, the latency to remove the tail lengthens in proportion to the analgesic potency of the drug. No animal was allowed to remain under the lamp for greater than 10 seconds to prevent any burns to the tail. No animal was subjected twice to this test.
Locomotor activity, ring immobility, and core body temperature parameters were measured as described in detail by Smith et al. (J. Pharmacol. Exp.Ther. (1994) 270; 219-227). Briefly, spontaneous locomotor activity is expressed as % inhibition vs. control. Mice were placed in individual activity cages 5 minutes post treatment, and interruption of the photocell beams (16 beams/chamber) were recorded for a 10 minute period using a Digiscan Animal Activity Monitor (Omnitech). Core temperature was measured by a rectal thermistor inserted to 25 mm, before and 30 minutes after administration of Abn-cbd. Catalepsy (ring immobility procedure) was expressed as % of total time spent motionless. Test compound can be injected into a tail vain i.v., and measurements are performed at 5 min (spontaneous motility), min (tail flick latency), 60 min (Core temperature) or 90 min (ring immobility) after drug injection.
Adult ICR mice (25-30 g) were from Harlan (Indianapolis, Ind.). Both male and female animals were used for these studies. Animals were housed four at a cage with standard mouse chow and water ad libitum, and were maintained at […] under a 12:12 light:dark cycle.

CB1 receptors [2] = target: T1, CB1 receptors (Rattus norvegicus, UniProt P20272); assay: 3H-CP-55,940 radioligand binding to P2 membranes from rat brain; conditions: concentration of 10 μM
T1 construct: from tissue; host or cells: rat brain P2 membranes

mesenteric vascular tone [3] = assay: Drug effects on mesenteric vascular tone in perfused mouse mesenteric area (phenylephrine-established tone); parameters: species or system mice; conditions: for mesenteric vasodilation: injected intraarterially as a 1 mg bolus; for inhibition of 0-1848-induced vasodilation: FIG. 2(B), 2(C); for vasodilation (agonist effect): intra arterial bolus, dose-response, FIG. 1; for dose lower than the dose of Abn-cbd required to produce similar vasodilation: relative to Abn-cbd
Procedure: For measuring drug effects on mesenteric vascular tone in mice, sodium pentobarbital-anesthetized mice were laparotornized and a PE50 cannula was inserted distally into the abdominal aorta. Both renal and both femoral arteries were ligated, the heart removed, and the mesenteric area including the liver was perfused with oxygenated Krebs buffer at 36° C., using a peristaltic pump and a constant flow rate of 0.7 ml/min. Perfusion pressure monitored close to the inflow cannula was 25-30 mmHg, and was increased to 60-70 mmHg by the inclusion of 15 μM phenylephrine in the medium. Vasodilator effects were expressed as % relaxation of established tone, 100% being equal to the difference in perfusion pressure in the absence and presence of phenylephrine.
Perfusion pressure monitored near the inflow cannula should be 25-30 mmHg (1 mmHg[…]133 Pa) and is increased to 60-70 mmHg by the inclusion of […] phenylephrine in the medium. Vasodilation is expressed as percent relaxation of established tone, 100% being equal to the difference in perfusion pressure in the absence and presence of phenylephrine.
Evaluation of vasodilator response was performed as in Example 1 except that after addition of either the agonists 0-1602 (FIG. 2A) or 0-1848 (FIG. 2B-2C) as intra arterial bolus injections, the mesenteric preparation was perfused with either drug free buffer (solid circles) or buffer containing […].

mesenteric vascular tone [4] = assay: as above; parameters: species or system mice; conditions: antagonist at 10 μM in perfusion buffer, FIG. 2(A)
[5] = cited from earlier work; for neurobehavioral effects: summary statement, no dose
[6] = 10 mg/kg i.v., anesthetized rats; prevented by 3 mg/kg SR141716A; cited from earlier work
CB1 receptors [7] = target: T1, CB1 receptors; conditions: cited from earlier work; for binding to CB1 receptors: summary statement, no concentration
[8] = 10 mg/kg i.v., anesthetized mice; prevented by 3 mg/kg SR141716A; cited from earlier work
mesenteric arterial bed [9] = conditions: cited from earlier work; for vasodilation: rat isolated / perfused mesenteric arterial bed
mesenteric arterial bed [10] = assay: Vascular tone in isolated mesenteric arterial bed, with or without antagonist or endothelial denudation; parameters: species or system rat; conditions: 100 μg, species not given
Procedure: The methods used to analyze drug effects on vascular tone in the rat isolated mesenteric arterial bed and to achieve endothelial denudation by brief perfusion with distilled water have been described in detail elsewhere (Wagner et al.(1999), Hypertension 33 (Part II), 429-434). Because of the long lasting vasodilator effect of anandamide, R-methanandamide and abnormal cannabidiol, each preparation was tested with a single dose of the agonist, either in the absence or the presence of an antagonist.

[11] = Blood pressure in urethane-anaesthetized spontaneous hypertensive (SHR) rats; type: in vivo; conditions: 5 animals
vanilloid VRI receptors = vanilloid VRI receptors (Homo sapiens, UniProt Q8NER1); conditions: cited from earlier work
Sequence of vanilloid VRI receptors (Q8NER1 whole entry): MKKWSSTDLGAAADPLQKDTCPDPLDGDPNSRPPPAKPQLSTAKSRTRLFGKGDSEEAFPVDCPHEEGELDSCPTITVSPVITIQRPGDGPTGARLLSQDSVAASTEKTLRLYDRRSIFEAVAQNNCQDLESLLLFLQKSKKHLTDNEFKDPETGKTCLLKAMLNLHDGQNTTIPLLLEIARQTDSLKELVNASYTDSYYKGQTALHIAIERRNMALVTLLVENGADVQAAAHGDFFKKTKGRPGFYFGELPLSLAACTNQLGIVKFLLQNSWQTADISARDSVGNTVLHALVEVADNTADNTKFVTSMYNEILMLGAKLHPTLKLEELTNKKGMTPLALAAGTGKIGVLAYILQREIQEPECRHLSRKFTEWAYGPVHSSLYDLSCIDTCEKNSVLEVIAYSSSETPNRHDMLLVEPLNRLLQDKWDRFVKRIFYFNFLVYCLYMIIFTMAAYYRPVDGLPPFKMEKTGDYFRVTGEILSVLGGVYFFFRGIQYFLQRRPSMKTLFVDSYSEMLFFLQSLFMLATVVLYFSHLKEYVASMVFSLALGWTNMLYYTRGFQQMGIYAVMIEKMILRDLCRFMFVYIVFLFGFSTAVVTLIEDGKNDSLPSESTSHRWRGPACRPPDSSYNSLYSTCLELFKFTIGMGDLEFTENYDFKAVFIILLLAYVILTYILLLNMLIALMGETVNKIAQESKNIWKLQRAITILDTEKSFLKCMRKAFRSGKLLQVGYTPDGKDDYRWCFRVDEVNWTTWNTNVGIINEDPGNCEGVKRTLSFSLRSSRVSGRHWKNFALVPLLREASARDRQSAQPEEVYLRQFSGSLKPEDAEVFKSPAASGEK

T1 sequence (P20272 whole entry): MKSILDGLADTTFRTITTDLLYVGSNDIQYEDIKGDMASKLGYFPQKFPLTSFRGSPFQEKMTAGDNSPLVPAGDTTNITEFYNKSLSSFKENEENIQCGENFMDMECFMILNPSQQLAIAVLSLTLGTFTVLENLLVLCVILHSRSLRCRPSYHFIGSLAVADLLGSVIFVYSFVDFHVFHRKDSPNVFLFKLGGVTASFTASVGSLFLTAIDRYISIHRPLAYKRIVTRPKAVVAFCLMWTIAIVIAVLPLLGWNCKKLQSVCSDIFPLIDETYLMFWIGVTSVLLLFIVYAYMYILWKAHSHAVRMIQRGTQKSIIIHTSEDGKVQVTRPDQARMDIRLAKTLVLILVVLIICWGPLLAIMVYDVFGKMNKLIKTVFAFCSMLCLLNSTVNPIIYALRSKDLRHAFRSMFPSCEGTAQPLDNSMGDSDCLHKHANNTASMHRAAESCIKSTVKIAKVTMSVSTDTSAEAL

C=C(C)[C@@H]1CCC(C)=CC1c1c(O)cc(C)cc1O (single isomer, unassigned; (-)) [0-1821, (−)-2-(3-3,4-trans-p-menthadien-(1,8)-orcinol]
response in the tetrad of standard neurobehavioral effects ([1]; 30 μg/kg): does not elicit a response
binding to CB1 receptors (CB1 receptors [2]): no significant binding
inhibition of 0-1602-induced vasodilation (mesenteric vascular tone [3]; FIG. 2(A), antagonist in perfusion buffer): dose-dependent pronounced inhibition
mesenteric vasodilation (mesenteric vascular tone [3]): did not elicit vasodilation
inhibition of the vasodilatory effect of compound 0-1602 (mesenteric vascular tone [4]): almost complete inhibition

C=C(C)[C@@H]1CCC(C)=CC1c1c(O)c(I)c(C)c(I)c1O (single isomer, unassigned; (-)) [0-1868, (−)-2-(3-3,4-trans-p-menthadien-(1,8)-4,6-diiodoorcinol]
response in the tetrad of standard neurobehavioral effects ([1]; 30 μg/kg): does not elicit a response
binding to CB1 receptors (CB1 receptors [2]): no significant binding
inhibition of 0-1848-induced vasodilation (mesenteric vascular tone [3]; antagonist in perfusion buffer): dose-dependent pronounced inhibition
mesenteric vasodilation (mesenteric vascular tone [3]): did not elicit mesenteric vasodilation

C=C(C)[C@@H]1CCC(C)=CC1c1c(O)cc(O)cc1CCCCC (single isomer, unassigned; (-)) [Abn-cbd, (−)-4-(3-3,4-trans-p-menthadien-1,8)-yl-olivetol]
marijuana-like neurobehavioral effects ([5]; doses up to 60 mg/kg, mice): does not cause marijuana-like neurobehavioral effects
neurobehavioral effects [5]: does not elicit cannabinoid-like neurobehavioral effects
hypotension [6]: cause hypotension
displacement of a potent known ligand from CB1 cannabinoid receptors (CB1 receptors [7]; concentrations up to 100 uM, rat brain plasma membrane preparation): failed to displace
binding to CB1 receptors (CB1 receptors [7]): does not bind
hypotension [8]: cause hypotension
vasodilator response in the presence of L-NAME and indomethacin (mesenteric arterial bed [9]; 100 μM L-NAME and 10 μM indomethacin in the perfusion buffer): remains unchanged
vasodilation in the presence of capsazepine (mesenteric arterial bed [9]; bolus injection of 4 mg, 5 μM capsazepine): same long lasting vasodilation
vasodilation (mesenteric arterial bed [9]): caused vasodilation

C=C(C)[C@@H]1CCC(C)=CC1c1c(C)cc(O)cc1O (some centres unmarked) [0-1602]
response in the tetrad of standard neurobehavioral effects ([1]; dose not given): does not elicit a response
vasodilation (agonist effect) (mesenteric vascular tone [3]): dose-dependent pronounced vasodilation
dose lower than the dose of Abn-cbd required to produce similar vasodilation (mesenteric vascular tone [3]): 80 ×
vasodilation after endothelial denudation (mesenteric arterial bed [10]; n=3, P<0.005): 18%±2
vasodilation in the presence of SR141716A (mesenteric arterial bed [10]; n=3, P<0.005): 15%±3
vasodilation (mesenteric arterial bed [10]; n=4): 54%±2

C=C(C)[C@@H]1CCC(C)=CC1c1c(O)cccc1O (some centres unmarked) [0-1847]
response in the tetrad of standard neurobehavioral effects ([1]; 30 μg/kg): does not elicit a response
binding to CB1 receptors (CB1 receptors [2]): no significant binding
inhibition of 0-1848-induced vasodilation (mesenteric vascular tone [3]; antagonist in perfusion buffer): dose-dependent pronounced inhibition
mesenteric vasodilation (mesenteric vascular tone [3]): did not elicit mesenteric vasodilation

C=C(C)[C@@H]1CCC(C)=CC1c1ccc(O)cc1O (some centres unmarked) [0-1848]
response in the tetrad of standard neurobehavioral effects ([1]; dose not given): does not elicit a response
vasodilation (agonist effect) (mesenteric vascular tone [3]): dose-dependent pronounced vasodilation
dose lower than the dose of Abn-cbd required to produce similar vasodilation (mesenteric vascular tone [3]): 80 ×
hypotensive effect (reduction in mean blood pressure) [11]: elicits a hypotensive effect

CCCCCCC(C)(C)c1cc(O)c2c(c1)OC(C)(C)[C@@H]1CC=C(CO)C[C@@H]21 [HU-210]
vasodilation (mesenteric arterial bed [9]): do not have a vasodilator effect

CCCCCc1cc(O)c2c(c1)OC(C)(C)[C@@H]1CCC(C)=C[C@@H]21 [THC, Δ9-trahydrocannabinol]
vasodilation (mesenteric arterial bed [9]): do not have a vasodilator effect

Cc1c(C(=O)c2cccc3ccccc23)c2cccc3c2n1[C@H](CN1CCOCC1)CO3 [WIN 55212-2]
vasodilation (mesenteric arterial bed [9]): do not have a vasodilator effect

CCCCC/C=C\C/C=C\C/C=C\C/C=C\CCCC(=O)NCCO [anandamide, arachidonyl ethanolamide]
vasodilation (mesenteric arterial bed [9]): elicits prolonged vasodilation

C=C(C)[C@@H]1CCC(C)=C[C@H]1c1c(O)cc(CCCCC)cc1O [cannabidiol]
neurobehavioral effects [5]: devoid of neurobehavioral effects
binding to CB1 receptors (CB1 receptors [7]): does not bind
antagonism of the vasodilator effect of Abn-cbd (mesenteric arterial bed [9]; species not stated): able to antagonize
mesenteric vasodilation (mesenteric arterial bed [9]; species not stated): does not elicit mesenteric vasodilation

Oc1cc2c(cc1O)CN(C(=S)NCCc1ccc(Cl)cc1)CCC2 [capsazepine]
Kd (vanilloid VRI receptors): 285 nM
